Experimental data taken from PubChem BioAssay (NCI).
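Test compounds were applied to cells in 96-well plates for 48 hours at 5 doses. TGI: concentration producing complete growth inhibition.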

Columns and labels:
Test in all cases: inhibition of tumour cell growth, NCI panel, 48 h
[1] = system: K-562 leukemia
[2] = system: OVCAR-5 ovarian
[3] = system: EKVX NSCLC
[4] = system: SF-268 CNS
[5] = system: A549 NSCLC
[6] = system: HCT-15 colon
[7] = system: PC-3 prostate
[8] = system: NCI-H460 lung
[9] = system: OVCAR-3 ovarian
[10] = system: NCI-H522 lung

Measured: TGI

CN(C)c1ccc(C2CC(C)(O)Oc3cc4c(cc32)OCO4)cc1 (stereo not given)
> 100 µM: all assays above
